Measurements from ChEMBL document CHEMBL4177730, “Rational modification of semaxanib and sunitinib for developing a tumor growth inhibitor targeting ATP binding site of tyrosine kinase” (2018).
Active and inactive are the calls of the source.

Assays:
Type in all cases: functional, cell-based
CCRF-CEM = test: Growth inhibition of human CCRF-CEM cells at 10 uM after 48 hrs by sulforhodamine B assay
HL-60(TB) = test: Growth inhibition of human HL-60(TB) cells at 10 uM after 48 hrs by sulforhodamine B assay
K562 = test: Growth inhibition of human K562 cells at 10 uM after 48 hrs by sulforhodamine B assay
MOLT-4 = test: Growth inhibition of human MOLT4 cells at 10 uM after 48 hrs by sulforhodamine B assay
RPMI-8226 = test: Growth inhibition of human RPMI8226 cells at 10 uM after 48 hrs by sulforhodamine B assay
SR = test: Growth inhibition of human SR cells at 10 uM after 48 hrs by sulforhodamine B assay
A549 = test: Growth inhibition of human A549/ATCC cells at 10 uM after 48 hrs by sulforhodamine B assay
EKVX = test: Growth inhibition of human EKVX cells at 10 uM after 48 hrs by sulforhodamine B assay
HOP-62 = test: Growth inhibition of human HOP62 cells at 10 uM after 48 hrs by sulforhodamine B assay
HOP-92 = test: Growth inhibition of human HOP92 cells at 10 uM after 48 hrs by sulforhodamine B assay
NCI-H226 = test: Growth inhibition of human NCI-H226 cells at 10 uM after 48 hrs by sulforhodamine B assay
NCI-H23 = test: Growth inhibition of human NCI-H23 cells at 10 uM after 48 hrs by sulforhodamine B assay
NCI-H322M = test: Growth inhibition of human NCI-H322M cells at 10 uM after 48 hrs by sulforhodamine B assay
NCI-H460 = test: Growth inhibition of human NCI-H460 cells at 10 uM after 48 hrs by sulforhodamine B assay
NCI-H522 = test: Growth inhibition of human NCI-H522 cells at 10 uM after 48 hrs by sulforhodamine B assay
COLO 205 = test: Growth inhibition of human COLO205 cells at 10 uM after 48 hrs by sulforhodamine B assay
HCC 2998 = test: Growth inhibition of human HCC2998 cells at 10 uM after 48 hrs by sulforhodamine B assay
HCT-116 = test: Growth inhibition of human HCT116 cells at 10 uM after 48 hrs by sulforhodamine B assay
HCT-15 = test: Growth inhibition of human HCT15 cells at 10 uM after 48 hrs by sulforhodamine B assay
HT-29 = test: Growth inhibition of human HT-29 cells at 10 uM after 48 hrs by sulforhodamine B assay
KM12 = test: Growth inhibition of human KM12 cells at 10 uM after 48 hrs by sulforhodamine B assay
SW-620 = test: Growth inhibition of human SW620 cells at 10 uM after 48 hrs by sulforhodamine B assay
SF-268 = test: Growth inhibition of human SF268 cells at 10 uM after 48 hrs by sulforhodamine B assay
SF-295 = test: Growth inhibition of human SF295 cells at 10 uM after 48 hrs by sulforhodamine B assay
SF-539 = test: Growth inhibition of human SF539 cells at 10 uM after 48 hrs by sulforhodamine B assay
SNB-19 = test: Growth inhibition of human SNB19 cells at 10 uM after 48 hrs by sulforhodamine B assay
SNB-75 = test: Growth inhibition of human SNB75 cells at 10 uM after 48 hrs by sulforhodamine B assay
U-251 = test: Growth inhibition of human U251 cells at 10 uM after 48 hrs by sulforhodamine B assay
LOX IMVI = test: Growth inhibition of human LOXIMVI cells at 10 uM after 48 hrs by sulforhodamine B assay
Malme-3M = test: Growth inhibition of human MALME-3M cells at 10 uM after 48 hrs by sulforhodamine B assay
M14 = test: Growth inhibition of human M14 cells at 10 uM after 48 hrs by sulforhodamine B assay
MDA-MB-435 = test: Growth inhibition of human MDA-MB-435 cells at 10 uM after 48 hrs by sulforhodamine B assay
SK-MEL-2 = test: Growth inhibition of human SK-MEL-2 cells at 10 uM after 48 hrs by sulforhodamine B assay
SK-MEL-28 = test: Growth inhibition of human SK-MEL-28 cells at 10 uM after 48 hrs by sulforhodamine B assay
SK-MEL-5 = test: Growth inhibition of human SK-MEL-5 cells at 10 uM after 48 hrs by sulforhodamine B assay
UACC-62 = test: Growth inhibition of human UACC62 cells at 10 uM after 48 hrs by sulforhodamine B assay
IGROV-1 = test: Growth inhibition of human IGROV1 cells at 10 uM after 48 hrs by sulforhodamine B assay
OVCAR-3 = test: Growth inhibition of human OVCAR3 cells at 10 uM after 48 hrs by sulforhodamine B assay
OVCAR-4 = test: Growth inhibition of human OVCAR4 cells at 10 uM after 48 hrs by sulforhodamine B assay
OVCAR-5 = test: Growth inhibition of human OVCAR5 cells at 10 uM after 48 hrs by sulforhodamine B assay
OVCAR-8 = test: Growth inhibition of human OVCAR8 cells at 10 uM after 48 hrs by sulforhodamine B assay
NCI/ADR-RES = test: Growth inhibition of human NCI-ADR-RES cells at 10 uM after 48 hrs by sulforhodamine B assay
SK-OV-3 = test: Growth inhibition of human SKOV3 cells at 10 uM after 48 hrs by sulforhodamine B assay
786-0 = test: Growth inhibition of human 786-0 cells at 10 uM after 48 hrs by sulforhodamine B assay
A498 = test: Growth inhibition of human A498 cells at 10 uM after 48 hrs by sulforhodamine B assay
ACHN = test: Growth inhibition of human ACHN cells at 10 uM after 48 hrs by sulforhodamine B assay
CAKI-1 = test: Growth inhibition of human CAKI-1 cells at 10 uM after 48 hrs by sulforhodamine B assay
RXF 393 = test: Growth inhibition of human RXF393 cells at 10 uM after 48 hrs by sulforhodamine B assay
SN12C = test: Growth inhibition of human SN12C cells at 10 uM after 48 hrs by sulforhodamine B assay
TK-10 = test: Growth inhibition of human TK10 cells at 10 uM after 48 hrs by sulforhodamine B assay
UO-31 = test: Growth inhibition of human UO31 cells at 10 uM after 48 hrs by sulforhodamine B assay
PC-3 = test: Growth inhibition of human PC3 cells at 10 uM after 48 hrs by sulforhodamine B assay
DU-145 = test: Growth inhibition of human DU145 cells at 10 uM after 48 hrs by sulforhodamine B assay
MCF7 = test: Growth inhibition of human MCF7 cells at 10 uM after 48 hrs by sulforhodamine B assay
MDA-MB-231 = test: Growth inhibition of human MDA-MB-231 cells at 10 uM after 48 hrs by sulforhodamine B assay
Hs-578T = test: Growth inhibition of human Hs 578T cells at 10 uM after 48 hrs by sulforhodamine B assay
BT-549 = test: Growth inhibition of human BT549 cells at 10 uM after 48 hrs by sulforhodamine B assay
T47D = test: Growth inhibition of human T47D cells at 10 uM after 48 hrs by sulforhodamine B assay
MDA-MB-468 = test: Growth inhibition of human MDA-MB-468 cells at 10 uM after 48 hrs by sulforhodamine B assay

Measured: growth inhibition (GI)

Cc1ccc(S(=O)(=O)n2cccc2/C=C2\C(=O)N(c3c(Cl)cccc3Cl)c3ccccc32)cc1
inactive: all assays above
